What was measured:
[1] = tested on: normal NK cells expanded with K562-aAPC; assay: drug sensitivity score (DSS) (DSS units); higher = more sensitive; extreme values may be limits of the assay; details: 72 h; IL-2 2.5 ng/mL
Procedure: (§1)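 Drug sensitivity and resistance testing on K562-aAPC-expanded normal NK cells: 5 concentrations (10-fold steps over a 10,000-fold range), 72 h at 37 °C, viability by CellTiter-Glo normalised to DMSO and benzethonium chloride controls; DSS from the fitted curve.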

[2] = tested on: KHYG-1 (IL-2 2.5 ng/mL); assay: percent inhibition of viability; higher = more inhibition; details: 72 h
[3] = tested on: normal primary NK cells, pool 3 (3 donors) (IL-2 2.5 ng/mL); assay: as above; details: 72 h
[4] = tested on: normal primary NK cells, pool 2 (3 donors) (IL-2 2.5 ng/mL); assay: as above; details: 72 h
[5] = tested on: SNK-6 (IL-2 2.5 ng/mL); assay: as above; details: 72 h
[6] = tested on: normal primary NK cells, pool 1 (3 donors) (IL-2 2.5 ng/mL); assay: as above; details: 72 h
[7] = tested on: YT (IL-2 2.5 ng/mL); assay: as above; details: 72 h
[8] = tested on: NK-YS (IL-2 2.5 ng/mL); assay: as above; details: 72 h
[9] = tested on: DERL-7 (IL-2 2.5 ng/mL); assay: as above; details: 72 h
[10] = tested on: NKL (IL-2 2.5 ng/mL); assay: as above; details: 72 h
[11] = tested on: NK-92 (IL-2 2.5 ng/mL); assay: as above; details: 72 h
[12] = tested on: IMC-1 (IL-2 20 ng/mL); assay: as above; details: 72 h
[13] = tested on: normal primary NK cells, pool 1 (3 donors), resting (IL-2 0 ng/mL); assay: as above; details: 72 h
[14] = tested on: KAI3 (IL-2 2.5 ng/mL); assay: as above; details: 72 h
[15] = tested on: normal NK cells expanded with K562-aAPC; assay: as above; details: 72 h, IL-2 2.5 ng/mL
Procedure: as §1

[16] = tested on: KHYG-1 (IL-2 2.5 ng/mL); assay: drug sensitivity score (DSS) (DSS units); higher = more sensitive; extreme values may be limits of the assay; details: 72 h
[17] = tested on: normal primary NK cells, pool 3 (3 donors) (IL-2 2.5 ng/mL); assay: as above; details: 72 h
[18] = tested on: normal primary NK cells, pool 2 (3 donors) (IL-2 2.5 ng/mL); assay: as above; details: 72 h
[19] = tested on: SNK-6 (IL-2 2.5 ng/mL); assay: as above; details: 72 h
[20] = tested on: normal primary NK cells, pool 1 (3 donors) (IL-2 2.5 ng/mL); assay: as above; details: 72 h
[21] = tested on: YT (IL-2 2.5 ng/mL); assay: as above; details: 72 h
[22] = tested on: NK-YS (IL-2 2.5 ng/mL); assay: as above; details: 72 h
[23] = tested on: DERL-7 (IL-2 2.5 ng/mL); assay: as above; details: 72 h
[24] = tested on: NKL (IL-2 2.5 ng/mL); assay: as above; details: 72 h
[25] = tested on: NK-92 (IL-2 2.5 ng/mL); assay: as above; details: 72 h
[26] = tested on: IMC-1 (IL-2 20 ng/mL); assay: as above; details: 72 h
[27] = tested on: normal primary NK cells, pool 1 (3 donors), resting (IL-2 0 ng/mL); assay: as above; details: 72 h
[28] = tested on: KAI3 (IL-2 2.5 ng/mL); assay: as above; details: 72 h

CC1(C)CNc2cc(NC(=O)c3cccnc3NCc3ccncc3)ccc21 [Motesanib] (max concentration tested 10000 nM)
Details | drug sensitivity score
[1] | 0.32
[16] | 0
[17] | 0
[18] | 0
[19] | 0
[20] | 0
[21] | 0.65
[22] | 0.73
[23] | 0
[24] | 3.62
[25] | 3.26
[26] | 0.85
[27] | 0
[28] | 1.11

percent inhibition of viability [%]
Details | 1 nM | 10 nM | 100 nM | 1000 nM | 10000 nM
[2] | -8.69 | -5.06 | -3.55 | 8.47 | 9.44
[3] | -2.89 | 5.36 | 3.67 | 3.63 | 9.45
[4] | -7.61 | 1.62 | 3.62 | 1.34 | 2.65
[5] | -15.2 | -22.6 | -22.4 | -32.4 | -29.5
[6] | -3.57 | 3.71 | 11 | 2.82 | -3.82
[7] | -3.76 | -2.12 | -1.24 | 6.34 | 14.4
[8] | -4.47 | -3.14 | -5.16 | 6.4 | 15
[9] | 8.61 | 2.19 | 10.7 | -4.45 | -7.84
[10] | -8.65 | -10.7 | -6.54 | 20 | 30.4
[11] | 5.17 | 2.14 | 10.4 | 20.8 | 17.9
[12] | -10.7 | -4.04 | -2.1 | 5 | 16.6
[13] | 4.22 | 16.2 | 15.4 | 16.6 | 11.9
[14] | -8.29 | -1.63 | -3.65 | 2.07 | 23.2
[15] | -5.87 | -5.96 | -6.1 | 8.26 | 11.9

Cc1cc(C)c(CNC(=O)c2cc(-c3ccc(CN4CCOCC4)cc3)cc3c2cnn3C2CCCC2)c(=O)[nH]1 [EPZ-5687] (max concentration tested 10000 nM)
Details | drug sensitivity score
[1] | 0
[16] | 0
[17] | 0
[18] | 0
[19] | 0
[20] | 0
[21] | 0
[22] | 0
[23] | 0
[24] | 0
[25] | 0
[26] | 0
[27] | 4.36
[28] | 0

percent inhibition of viability [%]
Details | 1 nM | 10 nM | 100 nM | 1000 nM | 10000 nM
[2] | -5.28 | 1.66 | -5.39 | -4.15 | -3.04
[3] | -6.45 | -1.35 | -6.34 | -4.92 | -4.19
[4] | -10.3 | -5.37 | -0.75 | -12.1 | -3.82
[5] | -3.6 | 10.5 | -5.25 | -4.13 | -15.8
[6] | -2.66 | -3.34 | -7.26 | -0.16 | 1.72
[7] | -2.28 | -2.31 | -4.1 | 0.78 | -1.43
[8] | -6.64 | -3.26 | -5.52 | -1.38 | 4.13
[9] | -1.37 | 6.73 | -10.3 | -3.14 | 3.39
[10] | -7.92 | -9.21 | -9.03 | -6.87 | -4.34
[11] | -18.6 | -17.5 | -11.1 | -7.12 | -16.9
[12] | -4.92 | -2.89 | -1.1 | -3.52 | -3.58
[13] | -3.8 | -2.57 | 0.76 | 26.6 | 18.2
[14] | 1.34 | -2.83 | 3.75 | -1.27 | -8.91
[15] | -0.71 | -3.48 | -3.69 | -2.2 | 0.02

Nc1nc2[nH]cc(CCc3ccc(C(=O)N[C@@H](CCC(=O)O)C(=O)O)cc3)c2c(=O)[nH]1 [Pemetrexed] (max concentration tested 10000 nM)
Details | drug sensitivity score
[1] | 8.95
[17] | 0
[18] | 0
[26] | 20.9

percent inhibition of viability [%]
Details | 1 nM | 10 nM | 100 nM | 1000 nM | 10000 nM
[3] | -6.87 | -6.65 | -7.52 | -11.4 | -7.17
[4] | -0.42 | -8.75 | -3.95 | -3.15 | -2.1
[12] | -2.55 | -0.76 | 27.5 | 93 | 94.2
[15] | -3.65 | -7.62 | 29.1 | 32.5 | 32.7
